These results are taken from US20220280581A1, “BENEFICIAL BACTERIA AND SECRETORY IMMUNOGLOBULIN A” (priority 2019, published 2022).

The subject of one assay is pooled human milk SIgA. As to the kind of experiment: Binding of SIgA to bacteria by flow cytometry. As to the method: Binding of sIgA to bacteria. Bacteria from Table 1 were resuspended in 0.8% saline at a concentration of 1×10^7 CFU/mL. SIgA was then added at 0, 10, 100, 500 and 1000 μg per 1×10^7 colony forming units (CFU) of bacteria and incubated at 24° C. for 30 min. Following incubation, bacteria were pelleted at 14000×g for 4 min and washed with saline twice to remove non-adherent SIgA.
Flow cytometry and immunofluorescence: To measure binding cells were fixed using 4% w/v paraformaldehyde for 30 min, washed with PBS, then incubated with 1% bovine serum albumin (BSA) blocking buffer for 1 h. Cells were stained with 1/100 dilution SYTOT™ 9 (S34854, ThermoFisher) for live cells and goat anti-human IgA conjugated to Alexa 647 fluorophore using 1/50 dilution in 1% BSA (ab96998, Abcam). For flow cytometry, all samples were acquired and analyzed on a FACScan flow cytometer (BD Biosciences, Mountain View, Calif.) using the CellQuest software program. For live/dead analyses following in vitro digestion, cells were stained with SYTOT™ 9 (1/100 dilution) for live cells and propidium iodine (1/1000 dilution) for dead cells or cells with compromised membranes.

Assay [1] deals with Caco-2 colonic cells co-cultured with HT29-MTX E12 cells. As to the kind of experiment: Bacterial adherence to colonocyte co-cultures. The format is cell-based, human. As to the method:
(§1) Mammalian cell culture binding assays: Caco-2 colonic cells were co-cultured with HT29-MTX E12 cells at a ratio of 3:1 and seeded at a density of 5×10^4 cells/well in 24-well plates, maintained as described above. On day 1 post-confluence, medium was removed, the cells washed once with PBS, and DMEM without FBS or antibiotics was added prior to binding assay. Bacteria were prepared as described above, with or without SIgA and resuspended in PBS at 1×10^7 CFU/mL. 4×10^5 CFU were added to the colonocytes and the plate was centrifuged at 600×g for 5 min to ensure bacteria association with the cells. After 2 h of incubation at 37° C. in 5% CO2, medium was removed and saved for cytokine analysis. Cells were washed once with PBS, and to one set of replicates, cells were lysed with 0.5% Triton X-100 and serial dilutions of the cell suspensions were plated on MRS and incubated anaerobically at 37° C. overnight to test viability. To a second set of replicates, TRIzol (15596018; Life Technologies) was added directly to washed cells for RNA extraction.

For assay [2], the system named is colonocytes (Caco-2 / HT29-MTX E12 co-culture). As to the kind of experiment: Colonocyte barrier function and immune gene expression (RT-qPCR). The format is cell-based, human. The following applies: for change of IL-8 expression when SIgA is first complexed to the bacteria / change of JAM expression when SIgA is first complexed: SIgA-complexed vs bacteria alone. As to the method:
as §1
Mammalian cell culture RT-qPCR for gene expression: Total RNA from mammalian co-culture samples were extracted via the TRIzol method. Total RNA (1 μg) was treated with Turbo DNAse (EN0521; Thermo Fisher) to remove genomic DNA, then used for reverse transcription producing cDNA, performed according to manufacturer protocol (High Capacity Complementary DNA Reverse Transcription Kit; Applied Biosystems). Gene list and primer sequences can be found in Table 2. Real-time PCR was performed with the Quantistudio 3 qPCR thermocycler (Applied Biosystems) using SyberGreen master mix (Life Technologies). Actin and GADPH were used as house-keeping genes. Analysis was performed using Quantistudio Design and Analysis Software v.1.4.3.
A general note: Quantitative PCR measures a nucleic acid by following its amplification.

The nature of assay [3]: BLI persistence / colonization in mice (feces). Format: in vivo, BALBc mice. As to the method: Mice: 6-week old female BALBc mice were purchased from The Jackson Labs. Mice were housed in an American Association for the Accreditation of Laboratory Animal Care-accredited facility, and procedures were conducted in compliance with the University of California Institutional Animal Care and Use Committee. Mice were co-housed 5 mice per cage in the Training and Research Animal Care Services vivarium at the University of California, Davis under conventional conditions with free access to standard chow RM1P (801151, Special Diet Services, Witham, England) and sterilized tap water with or without 2′FL. Mice were acclimated for 1 week prior to treatment. Mice were euthanized by decapitation following deep anesthesia with 100 mg/kg ketamine and 10 mg/kg xylazine administered by intraperitoneal injection.
Tissue Collection: Fecal samples were collected aseptically every 2 days for BLI detection. During necropsy, segments of duodenum, ileum, and colon were sectioned. First, Peyer's patches (PP) were collected and stored in 200 μL PBS in bead-beating tubes for homogenization and plating on blue/white screening agar. Duodenum, ileum, colon and cecum contents were collected into sterile tubes for bacterial analysis.
Bacterial plating and counting: PP, luminal contents and fecal samples were subjected to bead beating for 60 s at 4 m/s using a FastPrep homogenizer and 2 mm zirconium ceramic beads. Homogenate was serially diluted and plated on LB agar with kanamycin, x-gal and IPTG (blue-white screening agar) for differentiating JS107 and SJF10 strains, or further processed for DNA extraction and RT-qPCR for quantitation of BLI. […]
Strain-Specific qPCR: BLI was detected in fecal samples and intestinal contents following DNA extraction as described in Frese et al.^15 using the following primers: BLON0915F 5′[…]3′ and BLON0915R 5′ […]3′. […]

The mark [4] stands for this setting: colonocytes, listed as B. infantis.

Consider “Bifidobacterium longum ssp. infantis ATCC 15697”, for which the “binding of a heterogeneous pool of SIgA” value in the assay on pooled human milk SIgA (0-1000 μg SIgA per 1e7 CFU) was “concentration dependent”. The “association to SIgA when first grown on 2′FL” value in the assay with pooled human milk SIgA (1% 2′FL in the final media) is “increased association to SIgA”. Also, the “increased adherence to the co-culture with the addition of SIgA” value in assay [1] (first grown on LNnT) turned out to be 7.5e5 CFU; in assay [1] (first grown on glucose) it was 3.5e6 CFU. In assay [1] (lactose-grown), the “slope of regression plot of adherent bacteria with SIgA association” value is 4.6e3 adherent CFU per % population associated with SIgA. For the same substance, the “Slope (adherent CFU/% SIgA association)” value in assay [1] (substrate 2'FL) is on record as 1552.0 adherent CFU/% SIgA associatio; in assay [1] (substrate LNnT) it was 3606.0 adherent CFU/% SIgA associatio; in assay [1] (substrate all (no lac)), 4887.0 adherent CFU/% SIgA associatio; in assay [1] (substrate glucose), 6882.0 adherent CFU/% SIgA associatio; in assay [1] (substrate lactose), −2230.0 adherent CFU/% SIgA associatio. Further, the “change of barrier gene MUCSAC expression when SIgA is first complexed” value in assay [2] (colonocytes, 1000 μg SIgA per 1e7 CFU) is “decreased”. The “change of IL-8 expression when SIgA is first complexed to the bacteria” value in assay [2] (setting [4]) was “reduces the expression”; in assay [2] (colonocytes, listed as BLI), “increased”. In addition, the “change of JAM expression when SIgA is first complexed” value in assay [2] (setting [4]) is on record as “increasing the expression”; in assay [2] (colonocytes, listed as BLI), “decreased”. Also, in assay [2] (mammalian colonocytes), the “change of Claudin 1 expression with SIgA association” value is “increasing the expression”. The “change of Occludin expression with SIgA association” value in assay [2] (mammalian colonocytes) is on record as “increasing the expression”. The “increase of colonization in the gastrointestinal tract with SIgA association” value is reported as 4 log-scale in assay [3] (5-6 week old BALBc mice fed water) and 5 log-scale in assay [3] (mice supplemented with an HMO (10% 2′ fucosyllactose)). In addition, in assay [3] (one day post oral administration, vs not pre-incubated), the “higher concentration in feces when pre-incubated with milk SIgA” value was 10 ×.
